In US20100069366A1, “ANTIBACTERIAL QUINOLINE DERIVATIVES” (JANSSEN-CILAG, priority 2006, published 2010):
≈ marks a conversion by molar mass, not a printed value. Like-named read-outs stand apart in the source and are kept apart here.

How the values were obtained:
Format in all cases: cell-based
M. Smegmatis ATCC607 = assay: In-vitro anti-bacterial activity against strain M. smegmatis ATCC607; details: for IC90: Mycolicibacterium smegmatis
Description: Flat-bottom, sterile 96-well plastic microtiter plates were filled with 180 μl of sterile deionized water, supplemented with 0.25% BSA. Subsequently, stock solutions (7.8× final test concentration) of compounds were added in 45 μl volumes to a series of duplicate wells in column 2 so as to allow evaluation of their effects on bacterial growth. Serial five-fold dilutions (45 μl in 180 μl) were made directly in the microtiter plates from column 2 to 11 using a customised robot system (Zymark Corp., Hopkinton, Mass.). Pipette tips were changed after every 3 dilutions to minimize pipetting errors with high hydrophobic compounds. Untreated control samples with (column 1) and without (column 12) inoculum were included in each microtiter plate. Approximately 250 CFU per well of bacteria inoculum, in a volume of 100 μl in 2.8× Mueller-Hinton broth medium, was added to the rows A to H, except column 12. The same volume of broth medium without inoculum was added to column 12 in row A to H. The cultures were incubated at 37° C. for 48 hours in a humidified 5% CO2 atmosphere (incubator with open air valve and continuous ventilation). At the end of incubation, two days after inoculation, the bacterial growth was quantitated fluorometrically. Therefore Alamar Blue (10×) was added to all wells in a volume of 20 μl and plates were incubated for another 2 hours at […]
The fluorescence was read in a computer-controlled fluorometer (Cytofluor, Biosearch) at an excitation wavelength of 530 nm and an emission wavelength of 590 nm (gain 30).

[1] = tested on: Staphylococcus aureus (ATCC29213); assay: Microtitre plate assay, IC90 determination, STA 29213
Description: (§1) The bacteria used in this study were grown overnight in flasks containing 100 ml Mueller-Hinton Broth (Becton Dickinson—cat. no. 275730) in sterile de-ionized water, with shaking, at 37° C. Stocks (0.5 ml/tube) were stored at −70° C. until use. Bacteria titrations were performed in microtiter plates to detect the TCID50, in which the TCID50 represents the dilution that gives rise to bacterial growth in 50% of inoculated cultures.
(§2) In general, an inoculum level of approximately 100 TCID50 was used for susceptibility testing.
(§3) Flat-bottom, sterile 96-well plastic microtiter plates were filled with 180 μl of sterile deionized water, supplemented with 0.25% BSA. Subsequently, stock solutions (7.8× final test concentration) of compounds were added in 45 μl volumes in column 2 Serial five-fold dilutions (45 μl in […]) were made directly in the microtiter plates from column 2 to reach column 11. Untreated control samples with (column 1) and without (column 12) inoculum were included in each microtiter plate. Depending on the bacteria type, approximately 10 to 60 CFU per well of bacteria inoculum (100 TCID50), in a volume of 100 μl in 2.8× Mueller-Hinton broth medium, was added to the rows A to H, except column 12. The same volume of broth medium without inoculum was added to column 12 in row A to H. The cultures were incubated at 37° C. for 24 hours under a normal atmosphere (incubator with open air valve and continuous ventilation). At the end of incubation, one day after inoculation, the bacterial growth was quantitated fluorometrically. Therefore resazurin (0.6 mg/ml) was added in a volume of 20 μl to all wells 3 hours after inoculation, and the plates were re-incubated overnight. A change in colour from blue to pink indicated the growth of bacteria. The fluorescence was read in a computer-controlled fluorometer (Cytofluor Biosearch) at an excitation wavelength of 530 nm and an emission wavelength of 590 nm. The % growth inhibition achieved by the compounds was calculated according to standard methods.

[2] = tested on: Streptococcus pneumoniae (ATCC6305); assay: Microtitre plate assay, IC90 determination, SPN 6305; details: 90% inhibitory concentration for bacterial growth, resazurin
Description: as §1, §2, §3

[3] = tested on: Enterococcus faecalis (ATCC29212); assay: Microtitre plate assay, IC90 determination, EFA 29212; details: Enterococcus faecalis ATCC29212, 90% inhibitory concentration for bacterial growth, resazurin
Description: as §1, §2, §3

[4] = tested on: Streptococcus pyogens (ATCC8668); assay: Microtitre plate assay, IC90 determination, SPY 8668
Description: as §1, §2, §3

[5] = tested on: Pseudomonas aeruginosa (ATCC27853); assay: Microtitre plate assay, IC90 determination, PAE 27853
Description: as §1, §2, §3

[6] = ATCC607, 90% inhibitory concentration for bacterial growth, 48 hours, Alamar Blue fluorescence, read-out: M. smegmatis IC90
[7] = Staphylococcus aureus ATCC29213, 90% inhibitory concentration for bacterial growth, resazurin, read-out: IC90 (μg/ml) STA 29213
[8] = Streptococcus pneumoniae ATCC6305, read-out: IC90 (μg/ml) SPN 6305
[9] = ATCC607, 48 h, read-out: M. smegmatis IC90 (μg/ml), 90% inhibitory concentration for bacterial growth, Alamar Blue fluorescence
[10] = Staphylococcus aureus, ATCC29213, read-out: IC90 (μg/ml) STA 29213
[11] = Streptococcus pneumoniae, ATCC6305, read-out: IC90 (μg/ml) SPN 6305, Streptococcus pneumoniae ATCC6305

COc1nc2ccc(Br)cc2cc1C(/C(=C/CN(C)C)c1ccsc1)c1ccccc1 (centres unmarked) [Compound 17]
IC90 (M. Smegmatis ATCC607; [6]): 39.2 µg/mL (≈ 79.4 µM)
IC90 [1, 7]: 15.6 µg/mL (≈ 31.6 µM)
IC90 [2, 8]: 7.82 µg/mL (≈ 15.8 µM)
IC90 ([3]; read-out: IC90 (μg/ml) EFA 29212): 39.2 µg/mL (≈ 79.4 µM)
IC90 ([4]; Streptococcus pyogens ATCC8668, 90% inhibitory concentration for bacterial growth, resazurin, read-out: IC90 (μg/ml) SPY 8668): 19.6 µg/mL (≈ 39.8 µM)
IC90 ([5]; Pseudomonas aeruginosa ATCC27853, 90% inhibitory concentration for bacterial growth, resazurin, read-out: IC90 (μg/ml) PAE 27853): 44 µg/mL (≈ 89.1 µM)

COc1nc2ccc(Br)cc2cc1C(/C(=C/C[N+](C)(C)C)c1cccc(F)c1)c1ccccc1 (centres unmarked) [Compound 23]
IC90 (M. Smegmatis ATCC607; [9]): 1.85 µg/mL
IC90 [1, 10]: 1.65 µg/mL
IC90 [2, 11]: 1.85 µg/mL
IC90 ([4]; Streptococcus, ATCC8668, read-out: IC90 (μg/ml) SPY 8668): 1.65 µg/mL
IC90 ([5]; Pseudomonas aeruginosa, ATCC27853, read-out: IC90 (μg/ml) PAE 27853): 6.55 µg/mL

COc1nc2ccc(Br)cc2cc1C(=C(CCN(C)C)c1cccc(F)c1)c1ccccc1 [Compound 38]
M. smegmatis IC90 (M. Smegmatis ATCC607; 90% inhibitory concentration for bacterial growth, 48 hours, Alamar Blue fluorescence): 8.01 µg/mL
IC90 (μg/ml) STA 29213 ([1]; Staphylococcus aureus ATCC29213, 90% inhibitory concentration for bacterial growth, resazurin): 10.08 µg/mL (≈ 19.9 µM)
IC90 (μg/ml) SPN 6305 ([2]; Streptococcus pneumoniae ATCC6305): 8.01 µg/mL (≈ 15.8 µM)
IC90 (μg/ml) EFA 29212 [3]: 8.01 µg/mL (≈ 15.8 µM)
IC90 (μg/ml) SPY 8668 ([4]; Streptococcus pyogens ATCC8668, 90% inhibitory concentration for bacterial growth, resazurin): 3.58 µg/mL (≈ 7.08 µM)
IC90 (μg/ml) PAE 27853 ([5]; Pseudomonas aeruginosa ATCC27853, 90% inhibitory concentration for bacterial growth, resazurin): 8.99 µg/mL (≈ 17.8 µM)

COc1ccc(/C(CCCCN2CCCCC2)=C(/c2ccccc2)c2cnc3ccccc3c2)cc1 [Compound 51]
IC90 (M. Smegmatis ATCC607; [6]): 7.55 µg/mL (≈ 15.8 µM)
IC90 [1, 7]: 47.7 µg/mL (≈ 100 µM)
IC90 [2, 8]: 21.3 µg/mL (≈ 44.7 µM)

Clc1ccc(/C(CCCCN2CCCCC2)=C(/c2ccc(Cl)cc2)c2cnc3ccccc3c2)cc1 [Compound 52]
IC90 (M. Smegmatis ATCC607; [9]): 1.63 µg/mL (≈ 3.16 µM)
IC90 [1, 10]: 10.3 µg/mL (≈ 20 µM)
IC90 [2, 11]: 10.3 µg/mL (≈ 20 µM)

COc1ccc(/C(CCCCN2CCCCC2)=C(/c2ccc(Cl)cc2)c2cnc3ccccc3c2)cc1 [Compound 53]
IC90 (M. Smegmatis ATCC607; [6]): 2.03 µg/mL (≈ 3.97 µM)
IC90 [1, 7]: 9.09 µg/mL (≈ 17.8 µM)
IC90 [2, 8]: 10.2 µg/mL (≈ 20 µM)

N#Cc1ccc(/C(=C(\CCCCN2CCCCC2)c2ccccc2)c2cnc3ccccc3c2)cc1 [Compound 54]
IC90 (M. Smegmatis ATCC607; [9]): 11.8 µg/mL (≈ 25.1 µM)
IC90 [1, 10]: 42 µg/mL (≈ 89.1 µM)
IC90 [2, 11]: 47.2 µg/mL (≈ 100 µM)

N#Cc1ccc(/C(=C(\CCCCN2CCCCC2)c2ccc(Cl)cc2)c2cnc3ccccc3c2)cc1 [Compound 55]
IC90 (M. Smegmatis ATCC607; [9]): 8.02 µg/mL (≈ 15.8 µM)
IC90 [1, 10]: 8.02 µg/mL (≈ 15.8 µM)
IC90 [2, 11]: 10.1 µg/mL (≈ 20 µM)

COc1ccc(/C(=C(\CCCCN2CCCCC2)c2ccc(Cl)cc2)c2cnc3ccccc3c2)cc1 [Compound 58]
IC90 (M. Smegmatis ATCC607; [9]): 8.1 µg/mL (≈ 15.8 µM)
IC90 [1, 10]: 10.2 µg/mL (≈ 20 µM)
IC90 [2, 11]: 12.8 µg/mL (≈ 25.1 µM)

COc1nc2ccc(Br)cc2cc1C(/C(=C/C#N)CCCCN1CC2CC1CN2Cc1ccccc1)c1ccccc1 (centres unmarked) [Compound 60]
IC90 (M. Smegmatis ATCC607; [6]): 1.97 µg/mL (≈ 3.17 µM)
IC90 [1, 7]: 1.97 µg/mL (≈ 3.17 µM)
IC90 [2, 8]: 2.48 µg/mL (≈ 3.99 µM)

CCN(C)CCC/C=C(\CCc1ccccc1)C(c1ccccc1)c1cc2cc(Br)ccc2nc1OC (centres unmarked) [Compound 61]
IC90 (M. Smegmatis ATCC607; [6]): 1.76 µg/mL (≈ 3.16 µM)
IC90 [1, 7]: 1.76 µg/mL (≈ 3.16 µM)
IC90 [2, 8]: 1.76 µg/mL (≈ 3.16 µM)
